Several values for one entry are separate records, joined by “and”; a condition that tells them apart may be missing. Equal entries are not always repeated. Where two headings read alike, the source gives them in different places. Residues, ends and D or L forms follow the SMILES beside them.
Assays:
[1] = molecular target: c-Src SH3^P133L (Gallus gallus, UniProt P00523, P133L); assay: Fluorescence polarization direct binding assay, c-Src SH3^P133L; set-up: species or system chicken; conditions: 50 nM fluorescently labeled ligand; lower limit estimated; read-out: Kd, c-Src P133L SH3
Procedure: (§1) Polarization was measured by excitation with vertically polarized light at 485 nm and the fluorescence emission detected at 530 nm in both the vertical and horizontal directions. An average of five measurements were recorded for each well. Samples were equilibrated at room temperature for 25 min before analysis, a time sufficient for the binding reactions to reach equilibrium. The polarization data were fit using Kaleidagraph v3.6 software to Eq. 5, which is derived from first principles without assumptions. […] In this equation, Pobs is the observed polarization value at any given concentration of target protein (GST•SH3 domain). Pmin is the polarization of peptide^Flu at 50 nM in the absence of target protein. Pmax is the maximum polarization of peptide^Flu at saturation with target protein. Kd is the equilibrium dissociation constant. […] Free fits are shown. Kd values were estimated as described.

[2] = molecular target: Lck SH3 domain-GST fusion protein (Homo sapiens, UniProt P06239); assay: Fluorescence polarization direct binding assay, Lck SH3; conditions: 50 nM fluorescently labeled ligand, PBS pH 7.4; read-out: Kd, Lck SH3
Procedure: (§2) Polarization was measured by excitation with vertically polarized light at 485 nm and the fluorescence emission detected at 530 nm in both the vertical and horizontal directions. An average of five measurements were recorded for each well. Samples were equilibrated at room temperature for 25 min before analysis, a time sufficient for the binding reactions to reach equilibrium. The polarization data were fit using Kaleidagraph v3.6 software to Eq. 5, which is derived from first principles without assumptions. […] In this equation, Pobs is the observed polarization value at any given concentration of target protein (GST•SH3 domain). Pmin is the polarization of peptide^Flu at 50 nM in the absence of target protein. Pmax is the maximum polarization of peptide^Flu at saturation with target protein. Kd is the equilibrium dissociation constant. […] In these cases a lower limit Kd was estimated by setting Pmax equal to the observed polarization at the highest target protein concentration tested, which was often limited by solubility. […] Free fits are shown. Kd values were estimated as described. […] In several cases, the plots of polarization versus [SH3 domain] began to increase at high [SH3 domain] (>50 micromolar), perhaps because of a second binding event. In these cases (indicated by an asterisk (*) in Table 5), data above 50 micromolar target protein was excluded during the curve fits.

[3] = molecular target: non-Src family SH3 domain (Ab1, Nck1, Grb2, Abp1); assay: Fluorescence polarization binding to non-Src family SH3 domains; conditions: data not shown
Procedure: Fluorescence polarization assays were performed with 50 nM fluorescently labeled miniature protein and the indicated SH3 domain-GST fusion protein in PBS (1 mM KH2PO4, 155 mM NaCl, 3 mM Na2HPO4 (pH 7.4)) supplemented with 1 mM DTT and using the Analyst™ AD 96·384 automated fluorescence plate reader (LjL Biosystems). Binding reactions (32 microliters) were analyzed within 384-well assay plates (Corning Inc., Plate #3654) using settings defined by Criterion Host software v.2.00.11 and z height 1 mm. Polarization was measured by excitation with vertically polarized light at 485 nm and the fluorescence emission detected at 530 nm in both the vertical and horizontal directions. An average of five measurements were recorded for each well. Samples were equilibrated at room temperature for 25 min before analysis, a time sufficient for the binding reactions to reach equilibrium. […]
In this equation, Pobs is the observed polarization value at any given concentration of target protein (GST•SH3 domain). […] The observed binding free energy, ΔG, was calculated from the relationship ΔG=−RT ln Kd^−1, where R is the universal gas constant (1.987×10^−3 kcal mol^−1 K^−1) and T is the temperature in Kelvin (298 K). Fluorescence polarization analysis of the binding of fluorescently labeled miniature proteins and Peptide 1 to c-Src SH3^P133L are shown in FIG. 11. […]

[4] = molecular target: T1, c-Src SH3 domain-GST fusion protein (Gallus gallus, UniProt P00523); conditions: literature value; read-out: Kd, c-Src SH3 (reported); cited from earlier work
[5] = molecular target: T2, Hck kinase (Homo sapiens, UniProt P08631); assay: Hck kinase activation, NADH-coupled assay; assay type: biochemical; conditions: Activator 50 micromolar
T2 construct: His6 (N); made in house; host or cells: HighFive insect cells, co-infected with Hck and Csk baculovirus
Procedure: Activation of Hck kinase was measured using a validated NADH-coupled assay as described. Briefly, purified Hck kinase (15 micromolar) was first pre-incubated with 500 micromolar ATP and 20 mM MgCl2 for about 30 min on ice to initiate autophosphorylation of Y416. The autophosphorylated product (0.55 micromolar final concentration) was then incubated in Hck Reaction Buffer (20 mM MgCl2, 0.1 mM DTT, 20 μg/mL BSA, 100 mM HEPES (pH 7.5)) for 10 min at room temperature with the indicated concentration of Nef or miniature protein. At this time the remaining assay components (1 mM PEP, 0.2 mM NADH, 6 U pyruvate kinase (Type II from rabbit muscle, Sigma), 6 U L-lactic dehydrogenase (Type II from rabbit muscle, Sigma), 600 micromolar substrate peptide, and 500 micromolar ATP) were added to initiate the reaction (total volume 200 microliters) and the absorbance at 340 nm was monitored every 10 sec for 10 min using a Beckman DU 730 UVN is Spectrophotomer. The activation constant Kact for each ligand was calculated from the initial rate as a function of ligand concentration as previously described, using Eq. 6. Fold activation was calculated by dividing the rate in the presence of ligand by the rate in the absence of ligand.
va=Vact[L]/(Kact±[L]) Equation 6.
In this equation va is velocity measured in the presence of ligand minus the velocity measured in its absence; Vact is the maximal activated velocity minus the velocity measured in the absence of ligand; [L] is the concentration of activator and Kact is concentration of activator at half-maximal activation.

[6] = molecular target: T1, c-Src SH3 domain-GST fusion protein; assay: Fluorescence polarization direct binding assay, c-Src SH3; set-up: species or system chicken; conditions: 50 nM fluorescently labeled ligand, PBS pH 7.4; read-out: Kd, c-Src SH3
Procedure: as §1

[7] = molecular target: Fyn SH3 domain-GST fusion protein (Homo sapiens, UniProt P06241); assay: Fluorescence polarization direct binding assay, Fyn SH3; conditions: 50 nM fluorescently labeled ligand, PBS pH 7.4; read-out: Kd, Fyn SH3
Procedure: as §2

[8] = molecular target: Lyn SH3 domain-GST fusion protein (Homo sapiens, UniProt P07948); assay: Fluorescence polarization direct binding assay, Lyn SH3; conditions: 50 nM fluorescently labeled ligand, PBS pH 7.4; read-out: Kd, Lyn SH3
Procedure: as §2

[9] = molecular target: Hck SH3 domain-GST fusion protein (Homo sapiens, UniProt P08631); assay: Fluorescence polarization direct binding assay, Hck SH3; conditions: 50 nM fluorescently labeled ligand, PBS pH 7.4; read-out: Kd, Hck SH3
Procedure: as §1

T2 sequence (P08631 whole entry): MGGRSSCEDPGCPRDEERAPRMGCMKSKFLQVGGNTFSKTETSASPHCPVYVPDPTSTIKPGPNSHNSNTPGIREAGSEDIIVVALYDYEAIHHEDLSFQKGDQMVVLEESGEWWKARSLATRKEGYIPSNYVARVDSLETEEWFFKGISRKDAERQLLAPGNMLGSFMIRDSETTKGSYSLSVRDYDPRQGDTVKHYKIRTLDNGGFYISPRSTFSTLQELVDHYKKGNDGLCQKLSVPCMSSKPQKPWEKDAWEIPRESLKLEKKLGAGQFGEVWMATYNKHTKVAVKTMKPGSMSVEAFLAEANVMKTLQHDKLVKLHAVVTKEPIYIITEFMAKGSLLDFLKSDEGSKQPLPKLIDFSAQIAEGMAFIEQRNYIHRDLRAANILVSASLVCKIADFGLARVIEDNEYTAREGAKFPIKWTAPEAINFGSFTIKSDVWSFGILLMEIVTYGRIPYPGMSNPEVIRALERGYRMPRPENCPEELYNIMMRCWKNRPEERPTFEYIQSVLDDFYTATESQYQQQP
Chain of Hck SH3 domain-GST fusion protein (P08631 77-137): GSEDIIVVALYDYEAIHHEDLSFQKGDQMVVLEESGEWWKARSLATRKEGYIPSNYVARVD
Chain of Lck SH3 domain-GST fusion protein (P06239 62-128): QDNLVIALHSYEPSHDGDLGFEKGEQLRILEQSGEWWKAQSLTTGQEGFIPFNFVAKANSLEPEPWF
Chain of Lyn SH3 domain-GST fusion protein (P07948 62-122): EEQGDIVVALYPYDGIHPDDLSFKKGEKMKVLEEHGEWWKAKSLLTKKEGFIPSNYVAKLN
Chain of Fyn SH3 domain-GST fusion protein (P06241 81-142): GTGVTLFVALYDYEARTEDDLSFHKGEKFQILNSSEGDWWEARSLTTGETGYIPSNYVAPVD

Kd [1]: > 20 µM
Kd [2]: > 20 µM
Kd [3]: > 20 µM
Activity [5]: 33.9 ± 3.2 nmol/s
Fold-Activation ([5]; rate with ligand / rate without ligand): 3 and 3 ± 1
Kd [6]: 1500 ± 100 nM
Kd [7]: 870 to 2000 nM
Kd [8]: 870 to 2000 nM
Kd [9]: 870 to 2000 nM
Compound: CC(C)C[C@H](NC(=O)[C@H](CCCNC(=N)N)NC(=O)[C@@H]1CCCN1C(=O)[C@H](CCCNC(=N)N)NC(=O)[C@H](CC(N)=O)NC(=O)[C@H](CCCNC(=N)N)NC(=O)[C@@H]1CCCN1C(=O)[C@@H]1CCCN1C(=O)[C@H](CC(C)C)NC(=O)[C@@H]1CCCN1C(=O)[C@@H]1CCCN1C(=O)[C@H](C)N)C(N)=O [Peptide 1] (H-APPLPPRNRPRL-NH2)
Kd [4]: 1200 nM
